Here are results for 36 compounds from patent US20220348592A1, “FUSED HETEROCYCLIC DERIVATIVES” (Janssen Sciences Ireland Unlimited Company, priority 2019, published 2022).

The subject of data set [1] is HBV. Briefly: HBV replication inhibition assay (BDNA assay) in HepG2.2.15 cells. It counts as cell-based. The note with it: Hepatitis B virus, HepG2.2.15, 144 h, 6 days treatment, encapsidated HBV DNA in supernatant, BDNA QuantiGene assay. The method, then: HBV replication inhibition by the disclosed compounds were determined in cells infected or transfected with HBV or cells with stably integrated HBV, such as HepG2.2.15 cells (Sells et al. 1987). In this example, HepG2.2.15 cells were maintained in cell culture medium containing 10% fetal bovine serum (FBS), Geneticin, L-glutamine, penicillin and streptomycin. HepG2.2.15 cells were seeded in 96-well plates at a density of 40,000 cells/well and were treated with serially diluted compounds at a final DMSO concentration of 0.5% either alone or in combination by adding drugs in a checker box format. Cells were incubated with compounds for three days, after which medium was removed and fresh medium containing compounds was added to cells and incubated for another three days. At day 6, supernatant was removed and treated with DNase at 37° C. for 60 minutes, followed by enzyme inactivation at 75° C. for 15 minutes. […] HBV DNA was denatured by addition of 0.2 M NaOH and detected using a branched DNA (BDNA) QuantiGene assay kit according to manufacturer recommendation (Affymetrix). HBV DNA levels were also quantified using qPCR, based on amplification of encapsidated HBV DNA extraction with QuickExtraction Solution (Epicentre Biotechnologies) and amplification of HBV DNA using HBV specific PCR probes that can hybridize to HBV DNA and a fluorescently labeled probe for quantitation. In addition, cell viability of HepG2.2.15 cells incubated with test compounds alone or in combination was determined by using CellTitre-Glo reagent according to the manufacturer protocol (Promega). The mean background signal from wells containing only culture medium was subtracted from all other samples, and percent inhibition at each compound concentration was calculated by normalizing to signals from HepG2.2.15 cells treated with 0.5% DMSO using equation E1. […]
where DMSOave is the mean signal calculated from the wells that were treated with DMSO control (0% inhibition control) and Xi is the signal measured from the individual wells. […]

Data set [2] relates to HBV. In words: Anti-HBV activity: intracellular HBV DNA by real-time PCR in HepG2.117 cell line. In kind it is cell-based, Hepatitis B virus. Conditions: Hepatitis B virus, 72 h; HepG2.117 cells, 3 days of treatment, intracellular HBV DNA by real-time PCR, mean value; read-out: HBV-AVE-HepG2.117 EC50 (μM, mean value). A digest of the protocol: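 HepG2.117 cells, a Tet-off inducible HBV-producing line, induced to replicate HBV and then treated with serially diluted compound. After 3 days, intracellular HBV DNA quantified by real-time PCR with HBV-specific primers and probe.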

Data set [3] in a line: Cytotoxicity in HepG2.117 cells, ATPlite Luminescence Assay. It counts as cell-based, human. The note with it: human, incubated for 3 days, mean value, read-out: TOX-HepG2.117 CC50 (μM, mean value). The method, then: Cytotoxicity of the compounds was tested using HepG2 or HepG2.117 cells, incubated for 3 days in the presence of compounds. The viability of the cells was assessed using the PERKIN ELMER ATPlite Luminescence Assay System.”

A value given as a limit tells only on which side of the number the result lay.

Turning to `C[C@@H]1Cc2nn3c(c2CN1C(=O)Nc1ccc(F)c(C#N)c1)C(=O)N(C)C[C@H](c1cc[nH]n1)C3` (relative stereo) [Example 7a], the EC50 in data set [1] amounted to 37 nM.
Turning to `C[C@@H]1Cc2nn3c(c2CN1C(=O)Nc1ccc(F)c(C#N)c1)C(=O)N(C)CC(c1cc[nH]n1)C3` (single isomer, unassigned) [Example 9a, (3R,8R*)—N-(3-Cyano-4-fluorophenyl)-3,10-dimethyl-11-oxo-8-(1H-pyrazol-3-yl)-3,4,8,9,10,11-hexahydro-1H-pyrido[4′,3′:3,4]pyrazolo[1,5-a][1,4]diazepine-2(7H)-carboxamide], in data set [1], the EC50 is 260 nM.
For the compound `CN1CC(c2ccn(C)n2)Cn2nc3c(c2C1=O)CN(C(=O)Nc1ccc(F)c(C#N)c1)CC3` (stereo not drawn) [Example 5a, N-(3-Cyano-4-fluorophenyl)-10-methyl-8-(1-methyl-1H-pyrazol-3-yl)-11-oxo-3,4,8,9,10,11-hexahydro-1H-pyrido[4′,3′:3,4]pyrazolo[1,5-a][1,4]diazepine-2(7H)-carboxamide], the EC50 in data set [1] was found to be 160 nM.
For `CC(c1nc(C(C)(C)C)no1)N1CCn2nc3c(c2C1=O)CN(C(=O)c1ccc(Cl)c(Cl)c1)[C@H](C)C3` (stereo partly drawn) [Example C217], in data set [2], the 50% effective concentration (EC50) turned out to be 0.183 µM. The CC50 at 3 days in data set [3] amounted to 39.5 µM.
In the case of `CC(c1nccs1)N1CCn2nc3c(c2C1=O)CN(C(=O)c1ccc(Cl)c(Cl)c1)[C@H](C)C3` (stereo partly drawn) [Example C218], the concentration for a half-maximal effect (EC50) in data set [2] was determined as 0.039 µM. Further, the half-maximal cytotoxic concentration (CC50) at 3 days in data set [3] is more than 50 µM.
For `Cc1cnc(C(C)N2CCn3nc4c(c3C2=O)CN(C(=O)c2ccc(Cl)c(Cl)c2)[C@H](C)C4)cn1` (stereo partly drawn) [Example C219] the same measures were 0.068 µM and more than 50 µM.
For the compound `CCc1nnc(C(C)N2CCn3nc4c(c3C2=O)CN(C(=O)c2ccc(Cl)c(Cl)c2)[C@H](C)C4)o1` (stereo partly drawn) [Example C220], in data set [2], the EC50 was 0.077 µM. Besides, the CC50 at 3 days in data set [3] was more than 50 µM.
Take `Cc1cnc(C(C)N2CCn3nc4c(c3C2=O)CN(C(=O)c2ccc(Cl)c(Cl)c2)[C@H](C)C4)o1` (stereo partly drawn) [Example C221]: the EC50 in data set [2] turned out to be 0.022 µM. For the same compound, the half-maximal cytotoxic concentration (CC50) at 3 days in data set [3] is more than 50 µM.
In the case of `CCc1noc(C(C)N2CCn3nc4c(c3C2=O)CN(C(=O)c2ccc(Cl)c(Cl)c2)[C@H](C)C4)n1` (stereo partly drawn) [Example C222], the 50% effective concentration (EC50) in data set [2] turned out to be 0.124 µM. The half-maximal cytotoxic concentration (CC50) at 3 days in data set [3] was more than 50 µM.
Turning to `Cc1noc(C(C)N2CCn3nc4c(c3C2=O)CN(C(=O)c2ccc(Cl)c(Cl)c2)[C@H](C)C4)n1` (stereo partly drawn) [Example C223], the EC50 in data set [2] was 0.219 µM. For the same compound, the cytotoxic concentration (CC50) at 3 days in data set [3] is more than 50 µM.
For `Cc1nnc(C(C)N2CCn3nc4c(c3C2=O)CN(C(=O)c2ccc(Cl)c(Cl)c2)[C@H](C)C4)o1` (stereo partly drawn) [Example C224] the same measures were 0.326 µM and more than 50 µM.
Regarding `Cc1nc(C(C)N2CCn3nc4c(c3C2=O)CN(C(=O)c2ccc(Cl)c(Cl)c2)[C@H](C)C4)no1` (stereo partly drawn) [Example C225], in data set [2], the half-maximal effective concentration (EC50) is 0.263 µM. Also, the CC50 at 3 days in data set [3] is more than 50 µM.
On to `COc1ccccc1C(C)N1CCn2nc3c(c2C1=O)CN(C(=O)c1ccc(Cl)c(Cl)c1)[C@H](C)C3` (stereo partly drawn) [Example C227], for which the EC50 in data set [2] worked out at 0.129 µM. For the same compound, the CC50 at 3 days in data set [3] was 37.3 µM.
`C[C@@H]1Cc2nn3c(c2CN1C(=O)c1ccc(Cl)c(Cl)c1)C(=O)N(Cc1cc(F)ccc1F)CC3` [Example C228]: in data set [2], the EC50 is 0.062 µM. Moreover, the CC50 at 3 days in data set [3] was 37.5 µM.
As to `Cc1ocnc1CN1CCn2nc3c(c2C1=O)CN(C(=O)c1ccc(Cl)c(Cl)c1)[C@H](C)C3` [Example C229], the concentration for a half-maximal effect (EC50) in data set [2] came out at 0.438 µM. Besides, in data set [3], the CC50 at 3 days is more than 25 µM.
In the case of `C[C@@H]1Cc2nn3c(c2CN1C(=O)c1ccc(Cl)c(Cl)c1)C(=O)N(Cc1cc(F)cc(C#N)c1)CC3` [Example C230], the EC50 in data set [2] was 0.045 µM. In addition, the CC50 at 3 days in data set [3] is more than 12.5 µM.
As for `C[C@@H]1Cc2nn3c(c2CN1C(=O)c1ccc(Cl)c(Cl)c1)C(=O)N(Cc1cccc(C#N)c1F)CC3` [Example C231], the concentration giving a half-maximal response (EC50) in data set [2] was 0.09 µM. The CC50 at 3 days in data set [3] is more than 50 µM.
For `Cc1ccc(CN2CCn3nc4c(c3C2=O)CN(C(=O)c2ccc(Cl)c(Cl)c2)[C@H](C)C4)c(C)n1` [Example C232], in that order: 0.066 µM and 24.4 µM.
For `C[C@@H]1Cc2nn3c(c2CN1C(=O)c1ccc(Cl)c(Cl)c1)C(=O)N(Cc1cccnc1C(F)(F)F)CC3` [Example C233] the same measures were 0.423 µM and 29.8 µM.
Turning to `Cc1nc(C)c(CN2CCn3nc4c(c3C2=O)CN(C(=O)c2ccc(Cl)c(Cl)c2)[C@H](C)C4)s1` [Example C234], the half-maximal effective concentration (EC50) in data set [2] was 0.036 µM. Besides, the CC50 at 3 days in data set [3] was more than 50 µM.
In the case of `C[C@@H]1Cc2nn3c(c2CN1C(=O)c1ccc(Cl)c(Cl)c1)C(=O)N(Cc1nc(C2CC2)nn1C)CC3` [Example C235], the EC50 in data set [2] worked out at 1.93 µM. The CC50 at 3 days in data set [3] is more than 50 µM.
For the compound `Cc1conc1CN1CCn2nc3c(c2C1=O)CN(C(=O)c1ccc(Cl)c(Cl)c1)[C@H](C)C3` [Example C236], the EC50 in data set [2] was 0.325 µM. In addition, the CC50 at 3 days in data set [3] was more than 51 µM.
As for `C[C@@H]1Cc2nn3c(c2CN1C(=O)c1ccc(Cl)c(Cl)c1)C(=O)N(Cc1ccc(C(F)(F)F)cn1)CC3` [Example C237], in data set [2], the EC50 was determined as 0.107 µM. Also, in data set [3], the cytotoxic concentration (CC50) at 3 days was 18.8 µM.
In the case of `C[C@@H]1Cc2nn3c(c2CN1C(=O)c1ccc(Cl)c(Cl)c1)C(=O)N(Cc1ccc(C#N)c(F)c1)CC3` [Example C238], the concentration for a half-maximal effect (EC50) in data set [2] is 0.029 µM. Moreover, in data set [3], the 50% cytotoxic concentration (CC50) at 3 days turned out to be 39.9 µM.
For `C[C@@H]1Cc2nn3c(c2CN1C(=O)c1ccc(Cl)c(Cl)c1)C(=O)N(Cc1cn(C2CC2)nn1)CC3` [Example C239], in that order: 0.154 µM and more than 50 µM.
In the case of `C[C@@H]1Cc2nn3c(c2CN1C(=O)c1ccc(Cl)c(Cl)c1)C(=O)N(Cc1cnc(Cl)c(F)c1)CC3` [Example C240], the concentration giving a half-maximal response (EC50) in data set [2] was 0.017 µM. Also, the CC50 at 3 days in data set [3] is 35.2 µM.
In the case of `Cc1nocc1CN1CCn2nc3c(c2C1=O)CN(C(=O)c1ccc(Cl)c(Cl)c1)[C@H](C)C3` [Example C241], the EC50 in data set [2] was found to be 0.19 µM. The half-maximal cytotoxic concentration (CC50) at 3 days in data set [3] was more than 50 µM.
Consider `C[C@@H]1Cc2nn3c(c2CN1C(=O)c1ccc(Cl)c(Cl)c1)C(=O)N(Cc1nccn1C)CC3` [Example C242], for which the EC50 in data set [2] amounted to 0.589 µM. In data set [3], the half-maximal cytotoxic concentration (CC50) at 3 days is more than 50 µM.
On to `CCOc1cc(CN2CCn3nc4c(c3C2=O)CN(C(=O)c2ccc(Cl)c(Cl)c2)[C@H](C)C4)nc2nc(C(F)(F)F)nn12` [Example C243], for which, in data set [2], the EC50 was more than 2.5 µM. Also, the CC50 at 3 days in data set [3] was more than 50 µM.
`CC(c1ccccc1F)N1CCn2nc3c(c2C1=O)CN(C(=O)c1ccc(Cl)c(Cl)c1)[C@H](C)C3` (stereo partly drawn) [Example C244]: in data set [2], the EC50 is 0.048 µM. The CC50 at 3 days in data set [3] came out at 24.5 µM.
With `Cc1nnc(C(C)N2CCn3nc4c(c3C2=O)CN(C(=O)c2ccc(Cl)c(Cl)c2)[C@H](C)C4)s1` (stereo partly drawn) [Example C245], in data set [2], the concentration for a half-maximal effect (EC50) came out at 0.072 µM. For the same compound, the CC50 at 3 days in data set [3] is more than 50 µM.
Regarding `CC(c1cnccn1)N1CCn2nc3c(c2C1=O)CN(C(=O)c1ccc(Cl)c(Cl)c1)[C@H](C)C3` (stereo partly drawn) [Example C246], in data set [2], the 50% effective concentration (EC50) stood at 0.171 µM. Moreover, the CC50 at 3 days in data set [3] was more than 50 µM.
On to `CC(c1nnnn1C)N1CCn2nc3c(c2C1=O)CN(C(=O)c1ccc(Cl)c(Cl)c1)[C@H](C)C3` (stereo partly drawn) [Example C247], for which the EC50 in data set [2] is more than 2.5 µM. In data set [3], the half-maximal cytotoxic concentration (CC50) at 3 days was more than 50 µM.
For `CC(c1c(F)cccc1F)N1CCn2nc3c(c2C1=O)CN(C(=O)c1ccc(Cl)c(Cl)c1)[C@H](C)C3` (stereo partly drawn) [Example C248] the same measures were 0.013 µM and 25 µM.
Regarding `CC(c1nncn1C)N1CCn2nc3c(c2C1=O)CN(C(=O)c1ccc(Cl)c(Cl)c1)[C@H](C)C3` (stereo partly drawn) [Example C249], the EC50 in data set [2] was more than 2.5 µM. Besides, in data set [3], the CC50 at 3 days is more than 50 µM.
With `CC(c1ccncc1)N1CCn2nc3c(c2C1=O)CN(C(=O)c1ccc(Cl)c(Cl)c1)[C@H](C)C3` (stereo partly drawn) [Example C250], in data set [2], the EC50 was found to be 0.033 µM. The CC50 at 3 days in data set [3] is more than 12.5 µM.
